Assay [1] addresses His-His-(EK)-hsBCLXL(2-197)[N197C] (Homo sapiens (Human), UniProt Q07817, N197C). Description: Fluorescence quenching assay. The settings on record: 1 nM Cy5-labelled protein, 400 nM PUMA peptide, 2 hours at 23° C.; KI determined from IC50. The format is binding. In a few lines: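 Ki values converted from IC50s, measured as fluorescence increase (Ex 620/Em 680 nm) after 2 h at 23° C. Compounds were titrated over 11 points against 1 nM Cy5-BCL-xL and 400 nM quencher-tagged PUMA peptide in pH 7.4 HEPES (10 mM), 150 mM NaCl, 0.05% Tween 20, 5% DMSO.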

For assay [2], the target named is GST(1-218)-(FACTOR_XA)-hsBCLXL(2-209) (Homo sapiens (Human), UniProt Q07817). Description: Fluorescence polarisation assay. The format is binding. On the procedure: Fluorescence polarization measures the rotation of a fluorescing species in solution, the larger the molecule the more polarized the fluorescence emission.
(GST UniProtKB® primary accession number P08515 and BCLXL UniProtKB® primary accession number Q07817-1), • resulting in an increase in anisotropy. If a compound is added which competitively binds to the same site as the probe, thereby releasing it, anisotropy decreases due to the increased amount of free probe.
An 11-point serial dilution of each compound was prepared in DMSO, the final buffer conditions were 10 mM 4-(2-hydroxyethyl)-1-piperazineethanesulfonic acid [HEPES], 150 mM NaCl, 0.05% Tween 20, pH 7.4 and 5% DMSO. The final protein concentration in the assay was 20 nM with the fluorescent probe present at 10 nM. […] 1; 37 (WebServer issue): W441-W445.

The subject of assay [3] is MOLT-4 cells. Description: MOLT-4 cell viability using MTT assay. Type of assay: cell-based. The settings on record: Homo sapiens, MOLT-4, 48 h, 48 h exposure. Here is the method:
MTT colorimetric assay is based on the mitochondrial reduction of tetrazolium salt by living cells.
Cells were cultured at 37° C. in a humidified atmosphere containing 5% CO2. […] At the end of incubation time, 15 μL of MTT solution (5 mg/ml) were added per well and the cells were incubated for another 4 h. […] IC50s were calculated using standard four-parametric curve fitting.
(In general: Formazan colour is commonly taken as a measure of viable cells.)

The subject of assay [4] is H146 cells. Description: H146 cell viability using MTT assay. The format is cell-based. To be noted: Homo sapiens, NCI-H146, 48 h exposure. In a few lines: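 IC50 comes from four-parameter fits of optical density at 540 nm. Readout used 4 h MTT reduction followed by overnight SDS/HCl solubilisation, after 48 h compound exposure across nine 3.16-fold dilutions in triplicate. Culture medium was RPMI 1640 with 10% heat-inactivated FBS, antibiotics and L-glutamine.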

Molecules are shown by their SMILES. Where only a bound is given, the exact number is not on record here.

Sequence of GST(1-218)-(FACTOR_XA)-hsBCLXL(2-209) (Q07817 other isoform, or with tags, fused parts or gaps): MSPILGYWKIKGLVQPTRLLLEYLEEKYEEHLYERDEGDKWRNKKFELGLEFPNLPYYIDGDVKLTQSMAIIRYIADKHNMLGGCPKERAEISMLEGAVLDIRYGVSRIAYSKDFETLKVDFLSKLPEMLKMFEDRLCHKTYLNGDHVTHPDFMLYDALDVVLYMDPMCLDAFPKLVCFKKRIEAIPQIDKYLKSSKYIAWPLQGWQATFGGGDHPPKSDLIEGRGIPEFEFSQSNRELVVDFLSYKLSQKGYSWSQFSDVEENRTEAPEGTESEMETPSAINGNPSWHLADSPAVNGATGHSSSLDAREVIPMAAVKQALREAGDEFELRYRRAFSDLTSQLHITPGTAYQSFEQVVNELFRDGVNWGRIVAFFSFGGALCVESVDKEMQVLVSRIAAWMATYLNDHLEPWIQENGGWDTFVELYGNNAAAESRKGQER
Sequence of His-His-(EK)-hsBCLXL(2-197)[N197C] (Q07817 2-197 N197C): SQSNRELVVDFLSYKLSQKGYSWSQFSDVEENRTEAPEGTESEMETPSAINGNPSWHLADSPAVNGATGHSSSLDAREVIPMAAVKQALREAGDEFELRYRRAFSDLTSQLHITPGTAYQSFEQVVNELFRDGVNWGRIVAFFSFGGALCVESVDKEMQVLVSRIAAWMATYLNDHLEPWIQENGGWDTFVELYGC

Take `Cc1c(Nc2nc3ccccc3s2)nnc2c1C[C@@H](O)CN2c1nc(C(=O)O)cs1` [Example 33, 2-[(6R)-3-[(1,3-Benzothiazol-2-yl)amino]-6-hydroxy-4-methyl-5H,6H,7H,8H-pyrido[2,3-c]pyridazin-8-yl]-1,3-thiazole-4-carboxylic acid]: the Ki (commonly the dissociation constant of the complex between target and ligand, obtained from inhibition or displacement) in assay [1] turned out to be 1.4 nM; in assay [2], 5.5 nM.
`O=C(O)c1csc(N2CCc3cc(Nc4nc5ccccc5s4)ccc32)n1` [Example 3, 2-{5-[(1,3-Benzothiazol-2-yl)amino]-2,3-dihydro-1H-indol-1-yl}-1,3-thiazole-4-carboxylic acid] returned an inhibition constant Ki in assay [2] of 36000 nM.
Turning to `Cc1c(Nc2nc3ccccc3s2)nnc2c1CCN2c1cccc(C(=O)O)n1` [Example 20, 6-{3-[(1,3-Benzothiazol-2-yl)amino]-4-methyl-5H,6H,7H-pyrrolo[2,3-c]pyridazin-7-yl}pyridine-2-carboxylic acid], the values for the IC50 in assay [3] and in assay [4] were 162 nM and 3100 nM, respectively. This molecule yielded a Ki in assay [2] of 85 nM.
The corresponding values for `O=C(O)c1csc(N2CCc3c2nnc(Nc2nc4ccccc4s2)c3C2CC2)n1` [Example 28, 2-{3-[(1,3-Benzothiazol-2-yl)amino]-4-cyclopropyl-5H,6H,7H-pyrrolo[2,3-c]pyridazin-7-yl}-1,3-thiazole-4-carboxylic acid] are 880 nM, 3140 nM and 14 nM.
The corresponding values for `O=C(O)c1csc(N2CCc3cc(Nc4nc5ccccc5s4)nnc32)n1` [Example 10, 2-{3-[(1,3-Benzothiazol-2-yl)amino]-5H,6H,7H-pyrrolo[2,3-c]pyridazin-7-yl}-1,3-thiazole-4-carboxylic acid] are greater than 15000 nM, greater than 15000 nM and 210 nM.
The corresponding values for `Cc1c(Nc2nc3ccccc3s2)nnc2c1CCN2c1nc(C(=O)O)c(-c2cnn(CC34CC5CC(CC(C5)C3)C4)c2C)s1` [Example 13, 5-{1-[(Adamantan-1-yl)methyl]-5-methyl-1H-pyrazol-4-yl}-2-{3-[(1,3-benzothiazol-2-yl)amino]-4-methyl-5H,6H,7H-pyrrolo[2,3-c]pyridazin-7-yl}-1,3-thiazole-4-carboxylic acid] are 126 nM, 790 nM and 9.2 nM.
In assay [2], `CC1Cc2cc(Nc3nc4ccccc4s3)nnc2N1c1nc(C(=O)O)cs1` (stereo not drawn) [Example 16, 2-{3-[(1,3-Benzothiazol-2-yl)amino]-6-methyl-5H,6H,7H-pyrrolo[2,3-c]pyridazin-7-yl}-1,3-thiazole-4-carboxylic acid] returned a Ki of 120 nM.
In assay [2], `Cc1c(Nc2nc3ccccc3s2)nnc2c1CCCCN2c1ccc(-c2cnn(CC34CC5CC(CC(C5)C3)C4)c2C)c(C(=O)O)n1` [Example 29, 3-{1-[(Adamantan-1-yl)methyl]-5-methyl-1H-pyrazol-4-yl}-6-{3-[(1,3-benzothiazol-2-yl)amino]-4-methyl-5H,6H,7H,8H,9H-pyridazino[3,4-b]azepin-9-yl}pyridine-2-carboxylic acid] showed a Ki of 9.6 nM.
Same read-out and setting: the result for `Cc1c(Nc2nccs2)nnc2c1CCN2c1nc(C(=O)O)cs1` [Example 18, 2-{4-Methyl-3-[(1,3-thiazol-2-yl)amino]-5H,6H,7H-pyrrolo[2,3-c]pyridazin-7-yl}-1,3-thiazole-4-carboxylic acid] reads 5000 nM; that for `O=C(O)c1csc(N2CCCc3cc(Nc4nc5ccccc5s4)nnc32)n1` [Example 12, 2-{3-[(1,3-Benzothiazol-2-yl)amino]-5H,6H,7H,8H-pyrido[2,3-c]pyridazin-8-yl}-1,3-thiazole-4-carboxylic acid], 30 nM.
On the same count and under the same terms, with `O=C(O)c1csc(N2CCCc3cc(Nc4nc5ccccc5s4)ccc32)n1` [Example 1, 2-{6-[(1,3-Benzothiazol-2-yl)amino]-1,2,3,4-tetrahydroquinolin-1-yl}-1,3-thiazole-4-carboxylic acid] the figure was 37000 nM; with `Cc1c(Nc2nc3ccccc3s2)nnc2c1CCCCN2c1nc(C(=O)O)cs1` [Example 25, 2-{3-[(1,3-Benzothiazol-2-yl)amino]-4-methyl-5H,6H,7H,8H,9H-pyridazino[3,4-b]azepin-9-yl}-1,3-thiazole-4-carboxylic acid], 120 nM; with `O=C(O)c1csc(-n2ccc3cc(Nc4nc5ccccc5s4)nnc32)n1` [Example 8, 2-{3-[(1,3-Benzothiazol-2-yl)amino]-7H-pyrrolo[2,3-c]pyridazin-7-yl}-1,3-thiazole-4-carboxylic acid], 1100 nM.
In turn, `O=C(O)c1csc(-n2ccc3cc(Nc4nc5ccccc5s4)ccc32)n1` [Example 2, 2-{5-[(1,3-Benzothiazol-2-yl)amino]-1H-indol-1-yl}-1,3-thiazole-4-carboxylic acid] gave a Ki in assay [2] greater than 10000 nM.
On to `CNCC#Cc1ccc(OCCCc2sc(N3CCCc4c3nnc(Nc3nc5ccccc5s3)c4C)nc2C(=O)O)c(F)c1` [Example 32, 2-{3-[(1,3-Benzothiazol-2-yl)amino]-4-methyl-5H,6H,7H,8H-pyrido[2,3-c]pyridazin-8-yl}-5-(3-{2-fluoro-4-[3-(methylamino)prop-1-yn-1-yl]phenoxy}propyl)-1,3-thiazole-4-carboxylic acid], for which the Ki is 0.0046 nM in assay [1] and less than 1 nM in assay [2]. Moreover, in assay [3], the IC50 (commonly the concentration needed to halve the response being measured) is 0.987 nM.
The molecule `O=C(O)c1csc(-n2ccc3cc(Nc4nc5ccccc5s4)cnc32)n1` [Example 6, 2-{5-[(1,3-Benzothiazol-2-yl)amino]-1H-pyrrolo[2,3-b]pyridin-1-yl}-1,3-thiazole-4-carboxylic acid] displayed a Ki in assay [2] greater than 10000 nM.
`O=C(O)c1nc(-n2ccc3cc(Nc4nc5ccccc5s4)nnc32)sc1CCCOc1ccccc1F` [Example 9, 2-{3-[(1,3-Benzothiazol-2-yl)amino]-7H-pyrrolo[2,3-c]pyridazin-7-yl}-5-[3-(2-fluorophenoxy)propyl]-1,3-thiazole-4-carboxylic acid]: the Ki in assay [2] turned out to be 13 nM. Inhibition in assay [4] was half-maximal at 2340 nM (IC50).
`O=C(O)c1csc(N2CCOc3cc(Nc4nc5ccccc5s4)ccc32)n1` [Example 4, 2-{7-[(1,3-Benzothiazol-2-yl)amino]-3,4-dihydro-2H-1,4-benzoxazin-4-yl}-1,3-thiazole-4-carboxylic acid]: in assay [2], the Ki is greater than 10000 nM.
The same measure, in the same setting: the result for `O=C(O)c1cccc(-n2ccc3cc(Nc4nc5ccccc5s4)ccc32)n1` [Example 5, 6-{5-[(1,3-Benzothiazol-2-yl)amino]-1H-indol-1-yl}pyridine-2-carboxylic acid] reads greater than 10000 nM; that for `Cc1nc(Nc2nnc3c(c2C)CCN3c2nc(C(=O)O)cs2)sc1C` [Example 19, 2-{3-[(4,5-Dimethyl-1,3-thiazol-2-yl)amino]-4-methyl-5H,6H,7H-pyrrolo[2,3-c]pyridazin-7-yl}-1,3-thiazole-4-carboxylic acid], 3300 nM; that for `O=C(O)c1csc(-n2ccc3cc(Nc4nc5ccccc5s4)ncc32)n1` [Example 7, 2-{5-[(1,3-Benzothiazol-2-yl)amino]-1H-pyrrolo[2,3-c]pyridin-1-yl}-1,3-thiazole-4-carboxylic acid], 9900 nM.
